# Key:
# soybean = assay: Test B pre/postemergence soybean; type: in vivo, Glycine max
# Procedure, shortened: (§1)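 Test chemicals in a non-phytotoxic solvent mixture with surfactant were sprayed preemergence onto planted seeds and postemergence onto plants 2 to 18 cm tall (1- to 4-leaf stage). After twelve to sixteen days in a greenhouse, injury was visually rated against untreated controls from 0 (no effect) to 10 (complete control).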
# bedstraw = assay: Test B pre/postemergence bedstraw; type: in vivo, Galium aparine
# Procedure, shortened: as §1
# wild oat = assay: Test B pre/postemergence wild oat; type: in vivo, Avena fatua
# Procedure, shortened: as §1
# bamyardgrass = assay: Test B flood test barnyardgrass; type: in vivo, Echinochloa crus-galli
# Procedure, shortened: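 Flood test on plants grown to the 2-leaf stage; treated plants kept in greenhouse twelve to sixteen days, then visually rated against controls on a 0 (no effect) to 10 (complete control) scale.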
# [1] = Preemergence, Rate 62 g/ha, scale of 0 to 10 where 0 is no effect and 10 is complete control
# [2] = Preemergence, Rate 250 g/ha, scale of 0 to 10 where 0 is no effect and 10 is complete control
# [3] = Preemergence, Rate 500 g/ha, scale of 0 to 10 where 0 is no effect and 10 is complete control
# [4] = Rate 62 g/ha, Postemergence, scale 0 to 10 (0 no effect, 10 complete control)
# [5] = Rate 125 g/ha, Postemergence, scale of 0 to 10 where 0 is no effect and 10 is complete control
# [6] = Rate 250 g/ha, Postemergence, scale of 0 to 10 where 0 is no effect and 10 is complete control
# [7] = Rate 62 g/ha, headed Pre-emergence (flood test species), scale 0 to 10 (0 no effect, 10 complete control)
# [8] = Rate 125 g/ha, Pre-emergence, flood test species, scale 0 to 10 where 0 is no effect and 10 is complete control
# [9] = Rate 250 g/ha, Pre-emergence, flood-test species, scale 0 to 10, 0 is no effect, 10 is complete control
# [10] = Rate 500 g/ha, Pre-emergence, flood test species, scale 0 to 10 (0 no effect, 10 complete control)
# [11] = Postemergence, Rate 125 g/ha, scale 0 to 10, 0 is no effect, 10 is complete control
# [12] = Rate 500 g/ha, Postemergence, scale 0 to 10, 0 no effect, 10 complete control
SMILES,Soybean plant response rating (soybean; [1]),"Soybean plant response rating (0 to 10 scale) (soybean; Preemergence, Rate 125 g/ha)",Soybean plant response rating (soybean; [2]),Soybean plant response rating (soybean; [3]),Soybean plant response rating (soybean; [4]),Soybean plant response rating (soybean; [5]),"Plant response rating, Soybean (soybean; [6])",Bedstraw plant response rating (bedstraw; [1]),Bedstraw plant response rating (bedstraw; [3]),Bedstraw plant response rating (bedstraw; [4]),Wild oats plant response rating (wild oat; [1]),"Wild oats plant response rating (0 to 10 scale) (wild oat; Preemergence, Rate 125 g/ha)",Wild oats plant response rating (wild oat; [2]),Wild oats plant response rating (wild oat; [3]),Wild oats plant response rating (wild oat; [4]),"Plant response rating, Wild oats (wild oat; [6])",Barnyardgrass plant response rating (bamyardgrass; [7]),Barnyardgrass plant response rating (bamyardgrass; [8]),Barnyardgrass plant response rating (bamyardgrass; [9]),Barnyardgrass plant response rating (bamyardgrass; [10]),further results
CCc1cccc(CC)c1-n1c(=O)on(C(=O)N(c2ccc(F)cc2)C(C)C)c1=O [Compound 304],0,0,0,0,3,4,5,0,0,0,0,0,0,0,0,0,0,0,0,4,"Bedstraw plant response rating (0 to 10 scale) (bedstraw; Preemergence, Rate 125 g/ha): 0; Bedstraw plant response rating (bedstraw; [2]): 0; Bedstraw plant response rating (bedstraw; [5]): 0; Wild oats plant response rating (wild oat; [5]): 0"
CC(C)N(C(=O)n1oc(=O)n(Cc2ccccc2-c2ccccc2)c1=O)c1ccc(F)cc1 [Compound 313],0,0,0,0,1,2,3,0,0,5,0,0,0,0,0,0,0,0,0,0,"Bedstraw plant response rating (bedstraw; [2]): 0; Bedstraw plant response rating (bedstraw; [5]): 7; Plant response rating, Bedstraw (bedstraw; [6]): 7; Wild oats plant response rating (wild oat; [5]): 0"
CC(C)N(C(=O)n1oc(=O)n(Cc2nnsc2Cl)c1=O)c1ccc(F)cc1F [Compound 320],0,0,0,0,2,3,3,0,0,0,0,0,0,0,0,0,0,0,0,0,Bedstraw plant response rating (bedstraw; [5]): 0; Wild oats plant response rating (wild oat; [5]): 0
CC(C)N(C(=O)n1oc(=O)n(C2CC3CCC2C3)c1=O)c1ccc(F)cc1 (stereo not drawn) [Compound 327],0,0,0,0,5,,6,,,7,0,0,0,4,0,0,0,0,3,0,"Plant response rating, Soybean (soybean; [11]): 6; Plant response rating, Soybean (soybean; [12]): 7; Plant response rating, Bedstraw (bedstraw; [11]): 7; Plant response rating, Bedstraw (bedstraw; [6]): 7; Plant response rating, Wild oats (wild oat; [11]): 0; Plant response rating, Wild oats (wild oat; [12]): 0"
